# In ChEMBL document CHEMBL5543061, “Recent advances of antitumor leading compound Erianin: Mechanisms of action and structural modification” (Eur J Med Chem, 2023):
# Assays:
# HepG2 [1] = assay: Anticancer activity against human HepG2 cells assessed as reduction in cell viability; assay type: functional, cell-based
# HCT-116 [2] = assay: Growth inhibition of human HCT-116 cells measured for 48 hrs by SRB assay; assay type: functional
# A2780 = assay: Cytotoxicity against human A2780 cells assessed as reduction in cell viability incubated for 72 hrs by MTS assay; assay type: functional, cell-based; details: A2780, 72 h
# A2780cisR = assay: Antiproliferative activity against human cisplatin-resistant A2780 cells assessed as reduction in cell viability incubated for 72 hrs by MTS assay; assay type: functional, cell-based
# K562 = assay: Cytotoxicity against human K562 cells assessed as reduction in cell viability incubated for 72 hrs by MTS assay; assay type: functional, cell-based; details: K562, 72 h
# JIMT-1 = assay: Antiproliferative activity against human JIMT-1 cells assessed as reduction in cell viability incubated for 72 hrs by MTS assay; assay type: functional, cell-based; details: JIMT-1, 72 h
# MIA PaCa-2 = assay: Cytotoxicity against human MIA PaCa-2 cells assessed as reduction in cell viability incubated for 72 hrs by MTS assay; assay type: functional, cell-based; details: MIA PaCa-2, 72 h
# HeLa [3] = assay: Antiproliferative activity against human HeLa cells assessed cell growth reduction incubated for 48 hrs by MTT assay; assay type: functional, cell-based
# HeLa [4] = assay: Antiproliferative activity against human HeLa cells assessed as reduction in cell viability by MTT assay; assay type: functional, cell-based
# HCT-116 [5] = assay: Cytotoxicity against human HCT-116 cells assessed as reduction in cell viability incubated for 72 hrs by MTS assay; assay type: functional, cell-based; details: HCT-116, 72 h
# SW480 = assay: Cytotoxicity against human SW480 cells assessed as reduction in cell viability incubated for 72 hrs by celltiter glo assay; assay type: functional, cell-based; details: SW480, 72 h
# HeLa [6] = assay: Cytotoxicity against human HeLa cells assessed as reduction in cell viability after 72 hrs by MTS assay; assay type: functional, cell-based
# HeLa [7] = assay: Cytotoxicity against human HeLa cells assessed as reduction in cell growth incubated for 72 hrs by MTT assay; assay type: functional, cell-based
# HepG2 [8] = assay: Antiproliferative activity against human HepG2 cells assessed as reduction in cell growth; assay type: functional, cell-based
# HCT-116 [9] = assay: Growth inhibition of human HCT-116 cells; assay type: functional
# HepG2 [10] = assay: Antiproliferative activity against human HepG2 cells assessed as inhibition of cell growth relative to control; assay type: functional; design: scale not given: the % may be the effect or the level left
# HepG2 [11] = assay: Cytotoxicity against human HepG2 cells; assay type: functional, cell-based
# HL-60 = assay: Cytotoxicity against human HL-60 cells assessed as reduction in cell viability incubated for 48 hrs by MTT assay; assay type: functional, cell-based; details: HL-60, 48 h
structure (smiles),measurement,setting,value
COc1ccc(CCc2cc(OC)c(OC)c(OC)c2)cc1OC(=O)c1c[nH]c2ccccc12,IC50,HepG2 [1],> 0.5 µM
COc1ccc(Cc2cc(OC)c(OC)c(OC)c2)cc1O,GI50,HCT-116 [2],6 µM
COc1ccc(CCc2cc(OC)c(OC)c(OC)c2)cc1OC(=O)c1ccnnc1,IC50,HepG2 [1],> 0.5 µM
Cc1cc(N(C)c2ccc3c(c2)c2ccccc2n3C)c2ccccc2n1,IC50,A2780,0.00028 µM
same,IC50,A2780cisR,0.00024 µM
same,IC50,K562,0.00028 µM
same,IC50,JIMT-1,0.00028 µM
same,IC50,MIA PaCa-2,0.00028 µM
COc1ccc(CCc2cc(OC)c(OC)c(OC)c2)cc1OC(=O)c1ccoc1,IC50,HepG2 [1],> 0.5 µM
COc1cc(CCc2ccc(OC(C)(F)F)cc2[N+](=O)[O-])cc(OC)c1OC,IC50,HeLa [3],0.13 µM
CN(c1ccc2c(ccn2C)n1)c1nc(Cl)nc2ccccc12,IC50,A2780,0.00024 µM
same,IC50,K562,0.00024 µM
same,IC50,JIMT-1,0.00024 µM
same,IC50,MIA PaCa-2,0.00024 µM
COc1ccc(CCc2cc(OC)c(OC)c(OC)c2)cc1OC(=O)c1cncnc1,IC50,HepG2 [1],> 0.5 µM
CCOc1ccc(CCc2cc(OC)c(OC)c(OC)c2)cc1N,IC50,HeLa [4],0.2 µM
COc1cccc2c(N(C)c3ccc4c(c3)c3ccccc3n4C)cc(C)nc12,IC50,HCT-116 [5],0.021 µM
COc1cc(CCc2ccc(OC(F)F)c(O)c2)cc(OC)c1OC,IC50,SW480,0.18 µM
CN(c1ccc2c(c1)c1ccccc1n2C)c1nc(Cl)nc2ccccc12,IC50,HCT-116 [5],0.001 µM
COc1ccc(CCc2cc(OC)c(OC)c(OC)c2)cc1OC(=O)CCCCCNC(=O)CCCC[C@@H]1SC[C@@H]2NC(=O)N[C@@H]21,IC50,HeLa [6],0.026 µM
COc1cc(CCc2ccc(OC(F)F)c(NC(=O)CN)c2)cc(OC)c1OC,IC50,HeLa [7],0.07 µM
CCCOc1ccc(CCc2cc(OC)c(OC)c(OC)c2)cc1O,IC50,HepG2 [8],> 2 µM
COc1ccc(CCc2cc(OC)c(OC)c(OC)c2)cc1OC(=O)c1cnc(C)nc1,IC50,HepG2 [1],> 0.5 µM
COc1ccc(C(C)c2cc(C)c(OC)c(OC)c2)cc1OP(=O)(O)O (stereo not drawn),GI50,HCT-116 [9],0.1 µM
CCOc1cc(C(C)c2ccc(OC)c(N)c2)ccc1OC (stereo not drawn),GI50,HCT-116 [2],6 µM
COc1ccc(CCc2cc(OC)c(OC)c(OC)c2)cc1OC(=O)CCCC[C@H]1SC[C@H]2NC(=O)N[C@H]21,IC50,HeLa [6],0.494 µM
COc1cc(CCc2ccc(C(C)(F)F)cc2NC(=O)CN)cc(OC)c1OC,IC50,HeLa [3],0.05 µM
Cc1nc(N(C)c2ccc3c(c2)c2ccccc2n3C)c2ccccc2n1,IC50,HCT-116 [5],0.002 µM
Cc1cc(N(C)c2ccc3c(n2)OCCO3)c2ccccc2n1,IC50,HCT-116 [5],0.02 µM
same,IC50,A2780cisR,0.00028 µM
COc1ccc(/C=C\c2cc(OC)c(OC)c(OC)c2)cc1O [COMBRETASTATIN A4],IC50,SW480,0.27 µM
COc1ccc(CCc2cc(OC)c(OC)c(OC)c2)cc1OC(=O)c1cccnc1,IC50,HepG2 [1],> 0.5 µM
COc1ccc(C(C)c2cc(OC)c(OC)c(OC)c2)cc1N (stereo not drawn),GI50,HCT-116 [9],0.06 µM
same,GI50,HCT-116 [2],0.028 µM
COc1cc(OC)cc(C(C)c2ccc(OC)c(N)c2)c1 (stereo not drawn),GI50,HCT-116 [2],0.3 µM
COc1cc(CCc2ccc(OCCF)c(O)c2)cc(OC)c1OC,Activity,HepG2 [10],80.94%
same,IC50,HepG2 [8],0.0728 µM
COc1ccc(CCc2cc(OC)c(OC)c(OC)c2)cc1OC(=O)c1ccsc1,IC50,HepG2 [1],> 0.5 µM
COc1cc(CCc2ccc(OC(C)(F)F)cc2)cc(OC)c1OC,IC50,HeLa [3],0.11 µM
COc1ccc(CCc2cc(OC)c(OC)c(OC)c2)cc1OC(=O)c1cncc(Cl)c1,IC50,HepG2 [11],0.0324 µM
COc1cc(CCc2ccc(OC(F)F)c(OP(=O)(O)O)c2)cc(OC)c1OC,IC50,HeLa [7],0.11 µM
COc1ccc(CCc2cc(OC)c(OC)c(OC)c2)cc1OC(=O)c1cscn1,IC50,HepG2 [1],> 0.5 µM
CCOc1ccc(CCc2cc(OC)c(OC)c(OC)c2)cc1O,IC50,HeLa [4],0.11 µM
COc1cc(CCc2ccc(OC(C)(F)F)cc2N)cc(OC)c1OC,IC50,HeLa [3],0.46 µM
COc1cc(CCc2ccc(OC(=O)CCn3cc(F)c(=O)[nH]c3=O)c(O)c2)cc(OC)c1OC,IC50,HepG2 [8],> 0.5 µM
CN(c1ccc2c(ccn2C)c1)c1cc(C(F)(F)F)nc2ccccc12,IC50,HCT-116 [5],0.003 µM
CN(c1ccc2c(c1)c1ccccc1n2C)c1cc(Cl)nc2ccccc12,IC50,HCT-116 [5],0.016 µM
COc1ccc(CCc2cc(OC)c(OC)c(OC)c2)cc1OC(=O)CCC(=O)O,IC50,HL-60,0.048 µM
COc1cc(C(C)c2ccc3c(ccn3C)c2)cc(OC)c1OC (stereo not drawn),GI50,HCT-116 [9],0.029 µM
COc1ccc(C(C)c2cc(OC)c(OC)c(OC)c2)nc1 (stereo not drawn),GI50,HCT-116 [9],0.06 µM
COc1ccc(CCc2cc(OC)c(OC)c(OC)c2)cc1N,IC50,HeLa [4],0.16 µM
COc1ccc(N(C)c2cc(C)nc3ccccc23)nc1N,IC50,HCT-116 [5],0.001 µM
COc1ccc(CCc2cc(OC)c(OC)c(OC)c2)cc1OC(=O)c1cncc(Br)c1,IC50,HepG2 [11],0.0135 µM
COc1ccc(C(c2cc(OC)c(OC)c(OC)c2)C(F)F)cc1O (stereo not drawn),GI50,HCT-116 [9],0.03 µM
same,GI50,HCT-116 [2],0.03 µM
COc1ccc(CCc2cc(OC)c(OC)c(OC)c2)cc1OC(=O)CCC(=O)Oc1cc(CCc2cc(OC)c(OC)c(OC)c2)ccc1OC,IC50,HL-60,0.082 µM
COc1ccc(C(CC#N)c2cc(OC)c(OC)c(OC)c2)cc1O (stereo not drawn),GI50,HCT-116 [9],0.05 µM
same,GI50,HCT-116 [2],0.05 µM
